Experimental data taken from US8637511B2, “Aminopyrimidines useful as kinase inhibitors” (Vertex Pharmaceuticals Incorporated, priority 2005, dated 2014).
Values joined by “and” are separate entries in the source; they are usually repeats but may differ in a detail not shown here. Equal values may be shown once. Read-outs that look alike come from different tables or passages of the source.

Assays:
[1] = biological target: Aurora-1 (Aurora B) (Homo sapiens, UniProt Q96GD4); assay: Aurora-1 (Aurora B) inhibition assay (radiometric); format: biochemical; conditions: read-out: Aurora B kinase Ki value
Chain of Aurora-1 (Aurora B) (Q96GD4 whole entry): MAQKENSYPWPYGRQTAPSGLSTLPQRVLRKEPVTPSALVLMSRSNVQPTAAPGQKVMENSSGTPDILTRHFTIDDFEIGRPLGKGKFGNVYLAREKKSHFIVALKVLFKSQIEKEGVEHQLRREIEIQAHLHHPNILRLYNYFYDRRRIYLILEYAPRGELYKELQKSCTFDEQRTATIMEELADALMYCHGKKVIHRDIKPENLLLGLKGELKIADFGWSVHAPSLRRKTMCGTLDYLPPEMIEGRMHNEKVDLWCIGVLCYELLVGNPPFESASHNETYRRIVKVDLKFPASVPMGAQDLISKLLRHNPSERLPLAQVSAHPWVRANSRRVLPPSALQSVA
In short: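 Radiometric ^33P incorporation into peptide substrate, with [γ-^33P]-ATP at 800 μM final, in 25 mM HEPES pH 7.5, 10 mM MgCl2, 0.1% BSA, 10% glycerol. Compound preincubated with enzyme for 10 min at 25° C, reaction run 3 h, then captured on phosphocellulose. Ki from initial rates by non-linear regression after background subtraction.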

[2] = biological target: T1, Aurora-2 (Aurora A) (Homo sapiens, UniProt O14965); assay: Aurora-2 (Aurora A) inhibition assay, coupled enzyme; format: biochemical; conditions: read-out: Aurora A kinase Ki value
T1 sequence (O14965 1-403): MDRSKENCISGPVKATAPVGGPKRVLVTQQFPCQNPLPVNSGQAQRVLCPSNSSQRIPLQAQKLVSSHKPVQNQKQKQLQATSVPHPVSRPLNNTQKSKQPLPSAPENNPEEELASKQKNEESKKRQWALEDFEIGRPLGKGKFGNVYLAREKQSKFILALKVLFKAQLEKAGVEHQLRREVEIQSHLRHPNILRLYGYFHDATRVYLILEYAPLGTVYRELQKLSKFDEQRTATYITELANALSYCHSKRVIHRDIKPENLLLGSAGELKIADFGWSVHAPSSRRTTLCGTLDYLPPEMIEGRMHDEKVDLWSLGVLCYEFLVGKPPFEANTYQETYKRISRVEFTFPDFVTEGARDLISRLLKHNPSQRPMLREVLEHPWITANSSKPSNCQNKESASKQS
In short: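 Coupled pyruvate kinase/lactate dehydrogenase assay with NADH in pH 7.5 Hepes containing MgCl2, DTT and NaCl, using 40 nM Aurora-2 at 30 °C. After a 10 min preincubation, enzyme addition started the reaction, and initial rates were taken over 10 min. IC50 and Ki came from non-linear regression.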

[3] = biological target: T2, JAK3 (Homo sapiens, UniProt P52333); assay: biochemical
T2 sequence (P52333 1-1124): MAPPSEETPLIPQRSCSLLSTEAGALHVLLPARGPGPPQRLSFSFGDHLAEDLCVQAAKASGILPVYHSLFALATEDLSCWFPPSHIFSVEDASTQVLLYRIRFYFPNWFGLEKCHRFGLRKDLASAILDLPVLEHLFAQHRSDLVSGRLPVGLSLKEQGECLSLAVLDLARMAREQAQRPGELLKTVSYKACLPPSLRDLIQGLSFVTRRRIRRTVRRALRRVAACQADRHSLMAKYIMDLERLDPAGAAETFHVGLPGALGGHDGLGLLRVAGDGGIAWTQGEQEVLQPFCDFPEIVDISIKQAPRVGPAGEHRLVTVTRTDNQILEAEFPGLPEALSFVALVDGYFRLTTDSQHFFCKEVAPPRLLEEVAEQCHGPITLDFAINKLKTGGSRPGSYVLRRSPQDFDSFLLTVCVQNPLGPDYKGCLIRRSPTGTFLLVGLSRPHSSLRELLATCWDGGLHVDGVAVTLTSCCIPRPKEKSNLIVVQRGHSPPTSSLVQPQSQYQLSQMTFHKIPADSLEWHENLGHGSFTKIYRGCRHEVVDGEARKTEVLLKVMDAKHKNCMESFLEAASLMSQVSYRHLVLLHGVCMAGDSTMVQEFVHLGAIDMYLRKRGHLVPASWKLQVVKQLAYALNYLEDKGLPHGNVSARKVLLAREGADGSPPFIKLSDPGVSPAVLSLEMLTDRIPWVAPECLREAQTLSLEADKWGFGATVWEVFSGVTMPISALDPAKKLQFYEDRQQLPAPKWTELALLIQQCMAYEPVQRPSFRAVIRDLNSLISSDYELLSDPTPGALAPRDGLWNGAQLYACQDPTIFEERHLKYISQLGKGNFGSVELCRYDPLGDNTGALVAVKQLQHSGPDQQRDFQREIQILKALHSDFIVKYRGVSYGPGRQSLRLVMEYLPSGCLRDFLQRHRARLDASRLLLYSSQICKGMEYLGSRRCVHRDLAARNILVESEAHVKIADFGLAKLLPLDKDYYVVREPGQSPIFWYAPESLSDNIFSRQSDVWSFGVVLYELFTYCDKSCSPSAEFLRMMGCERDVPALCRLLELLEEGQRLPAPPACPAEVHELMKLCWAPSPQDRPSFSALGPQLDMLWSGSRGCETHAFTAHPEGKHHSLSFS

Compound | Ki [1] | Ki [2] | Ki ([3]; read-out: JAK3 Ki value) | Ki [3]
CCOC1CN(c2cc(Nc3cc(C)[nH]n3)nc(Sc3ccc(NC(=O)c4ccccc4Cl)cc3)n2)C1 [Compound 37] | ≤ 10 nM | ≤ 1 nM | ≤ 10 nM | 
Cc1cc(Nc2cc(N3CC(OC(C)C)C3)nc(Sc3ccc(NC(=O)c4ccccc4Cl)cc3)n2)n[nH]1 [Compound 38] | ≤ 10 nM | ≤ 1 nM |  | 10 to 500 nM
Cc1cc(Nc2cc(N3CC(C)(O)C3)nc(Sc3ccc(NC(=O)c4ccccc4Cl)cc3)n2)[nH]n1 [Compound 50] | ≤ 10 nM | ≤ 1 nM | ≤ 10 nM | 
COC1(C)CN(c2cc(Nc3cc(C)n[nH]3)nc(Sc3ccc(NC(=O)c4ccccc4Cl)cc3)n2)C1 [Compound 51] | ≤ 10 nM | ≤ 1 nM |  | 10 to 500 nM
Cc1cc(Nc2cc(N3CCC3)nc(Sc3ccc(NC(=O)Cc4ccccc4Cl)cc3)n2)[nH]n1 [Compound 57] | ≤ 10 nM | ≤ 1 nM |  | 10 to 500 nM
Cc1cc(Nc2cc(N3CCC3)nc(Sc3ccc(NC(=O)c4cnccc4C(F)(F)F)cc3)n2)[nH]n1 [Compound 59] | ≤ 10 nM |  |  | 
CCC(=O)Nc1ccc(Sc2nc(Nc3cc(C)n[nH]3)cc(N3CC(OC(C)(C)C)C3)n2)cc1 [Compound 67] | 50 to 2000 nM | ≤ 1 nM | 10 to 500 nM | 
CCC(=O)Nc1ccc(Sc2nc(Nc3cc(C)n[nH]3)cc(N3CC(N4CCOCC4)C3)n2)cc1 [Compound 68] | 50 to 2000 nM | ≤ 1 nM |  | 10 to 500 nM
CC(C)(C)c1cc(Nc2cc(N3CCC3)nc(Sc3ccc(NC(=O)c4ccccc4Cl)cc3)n2)n[nH]1 [Compound 69] | 50 to 2000 nM |  | 500 to 2000 nM | 
COCc1cc(Nc2cc(N3CCC3)nc(Sc3ccc(NC(=O)c4ccccc4Cl)cc3)n2)n[nH]1 [Compound 82] | 50 to 2000 nM |  | 500 to 2000 nM | 
Cc1cc(Nc2cc(N3CCC3)nc(Sc3ccc(NC(=O)c4ccc(-c5ccccc5)cc4Cl)cc3)n2)[nH]n1 [Compound 83] | ≤ 10 nM | ≤ 1 nM |  | 10 to 500 nM
CCC(=O)Nc1ccc(Sc2nc(Nc3cc(C)n[nH]3)cc(N3CC(C)(N4CCOCC4)C3)n2)cc1 [Compound 88] | ≤ 10 nM | ≤ 1 nM | ≤ 10 nM | 
CCC(=O)Nc1ccc(Sc2nc(Nc3cc(C)n[nH]3)cc(N3CC(C)(N4CCCC4)C3)n2)cc1 [Compound 89] | ≤ 10 nM | ≤ 1 nM |  | 10 to 500 nM
CCC(=O)Nc1ccc(Sc2nc(Nc3cc(C)n[nH]3)cc(N3CC(OC)(C(C)(C)C)C3)n2)cc1 [Compound 90] | ≤ 10 nM | ≤ 1 nM |  | 10 to 500 nM
CCC(=O)Nc1ccc(Sc2nc(Nc3cc(C)n[nH]3)cc(N3CC4(C3)OCC4(C)C)n2)cc1 [Compound 92] | 10 to 50 nM | ≤ 1 nM |  | ≤ 10 nM
Cc1cc(Nc2cc(N3CC(O)(C4CC4)C3)nc(Sc3ccc(NC(=O)C4CC4)c(F)c3)n2)[nH]n1 [Compound 109] | 10 to 50 nM | ≤ 1 nM | 10 to 500 nM | 
Cc1cc(Nc2cc(N3CC(OC(=O)CN(C)C)(C4CC4)C3)nc(Sc3ccc(NC(=O)C4CC4)cc3)n2)n[nH]1 [Compound 119] | ≤ 10 nM | ≤ 1 nM |  | 10 to 500 nM
Cc1cc(Nc2cc(N3CC(F)(C4CC4)C3)nc(Oc3ccc(NC(=O)CC(F)(F)F)cc3)n2)[nH]n1 [Compound 144] | 10 to 50 nM and < 25 nM | ≤ 1 nM |  | 10 to 500 nM

Compound | Ki [1] | Ki [2] | Ki ([3]; read-out: JAK3 Ki value) | Ki [3]
Cc1cc(Nc2cc(N3CC(F)(C4CC4)C3)nc(Sc3ccc(NS(C)(=O)=O)cc3)n2)[nH]n1 [Compound 151] | 50 to 2000 nM | ≤ 1 nM |  | ≤ 10 nM
Cc1cc(Nc2cc(N3CC(F)(C4CC4)C3)nc(Sc3ccc(NC(=O)CN(C)C)cc3)n2)[nH]n1 [Compound 152] | ≤ 10 nM | ≤ 1 nM |  | 500 to 2000 nM
Cc1cc(Nc2cc(N3CC(O)(C4CC4)C3)nc(Sc3ccc4nc(C(F)(F)F)n(C)c4c3)n2)[nH]n1 [Compound 155] | ≤ 10 nM | ≤ 1 nM |  | 10 to 500 nM
Cc1cc(Nc2cc(N3CC(C)(F)C3)nc(Sc3ccc(NC(=O)CC(F)(F)F)cc3)n2)n[nH]1 [Compound 168, N-(4-(4-(5-methyl-1H-pyrazol-3-ylamino)-6-(3-fluoro-3-methylazetidin-1-yl)pyrimidin-2-ylthio)phenyl)-3,3,3-trifluoropropanamide] | ≤ 10 nM | ≤ 1 nM | 10 to 500 nM | 
Cc1cc(Nc2cc(N3CC(C)(C#N)C3)nc(Sc3ccc(NC(=O)CC(F)(F)F)cc3)n2)[nH]n1 [Compound 169] | ≤ 10 nM | ≤ 1 nM | 10 to 500 nM | 
Cc1cc(Nc2cc(N3CC(O)(C4CC4)C3)nc(Sc3cc(F)c4nc(C)ccc4c3)n2)[nH]n1 [Compound 172] | ≤ 10 nM | ≤ 1 nM |  | ≤ 10 nM
Cc1cc(Nc2cc(N3CC(N4CCOCC4)C3)nc(Sc3ccc4c(c3)CN(CC(F)(F)F)C4=O)n2)[nH]n1 [Compound 173] | 10 to 50 nM and < 25 nM | ≤ 1 nM |  | ≤ 10 nM
Cc1cc(Nc2cc(N3CC(N4CCOCC4)C3)nc(Sc3ccc4nc(CC(F)(F)F)n(C)c4c3)n2)[nH]n1 [Compound 177] | ≤ 10 nM | ≤ 1 nM |  | 10 to 500 nM
Cc1cc(Nc2nc(Sc3ccc(NC(=O)CC(F)(F)F)cc3)nc(N3CC(F)(C4CC4)C3)c2F)[nH]n1 [Compound 178] | 10 to 50 nM | ≤ 1 nM |  | 500 to 2000 nM
Cc1cnc(Nc2cc(N3CC(F)(C4CC4)C3)nc(Oc3ccc(NC(=O)CC(F)(F)F)cc3)n2)s1 [Compound 181] | 10 to 50 nM | ≤ 1 nM | ≤ 10 nM | 
Cc1cc(Nc2cc(N3CC(C)(C(C)(C)F)C3)nc(Sc3ccc(NC(=O)CC(F)(F)F)cc3)n2)[nH]n1 [Compound 183] | ≤ 10 nM | ≤ 1 nM | ≤ 10 nM | 
CC(C)=C1CN(c2cc(Nc3cc(C)n[nH]3)nc(Sc3ccc(NC(=O)CC(F)(F)F)cc3)n2)C1 [Compound 184] | 10 to 50 nM and < 25 nM | ≤ 1 nM |  | 10 to 500 nM
Cc1cc(Nc2cc(N3CC(N4CC[C@H](F)C4)C3)nc(Sc3ccc(NC(=O)CC(F)(F)F)cc3)n2)[nH]n1 [Compound 185] | ≤ 10 nM | ≤ 1 nM | ≤ 10 nM | 
Cc1cc(Nc2cc(N3CC(O)(C4CC4)C3)nc(Sc3ccc4nc(C(F)(F)F)ccc4c3)n2)[nH]n1 [Compound 186] | ≤ 10 nM | ≤ 1 nM | 10 to 500 nM | 
Cc1cc(Nc2cc(N3CC(F)(C4CC4)C3)nc(Sc3ccc(NC(=O)C4(C)CC4)cc3)n2)[nH]n1 [Compound 203] | 50 to 2000 nM | ≤ 1 nM |  | 500 to 2000 nM
Cc1cc(Nc2cc(N3CC(N4CCCC4)C3)nc(Sc3ccc(NC(=O)CC(F)(F)F)cc3)n2)[nH]n1 [Compound 204] | ≤ 10 nM | ≤ 1 nM | 10 to 500 nM | 
Cc1cc(Nc2cc(N3CC(F)(C4CC4)C3)nc(Sc3ccc(C(=O)NCC(F)(F)F)cc3)n2)[nH]n1 [Compound 205] | 10 to 50 nM and < 25 nM | ≤ 1 nM | 10 to 500 nM | 
Cc1cc(Nc2cc(N3CC(F)(C4CC4)C3)nc(Sc3cnc4ccccc4c3)n2)[nH]n1 [Compound 206] | 10 to 50 nM | ≤ 1 nM |  | ≤ 10 nM
